Measurements from article PMC4468608, “A distinct p53 target gene set predicts for response to the selective p53–HDM2 inhibitor NVP-CGM097” (eLife, 2015).
Read-outs that look alike come from different tables or passages of the source.

System: cell lines from the Cancer Cell Line Encyclopedia (CCLE)
Experiment: High-throughput cell viability assay, CCLE cell line panel (n = 356)
Assay type: cell-based, human
Conditions: Homo sapiens
Description: Cell lines were partitioned into sensitive and insensitive groups based on compound potency (IC50). […] All other cell lines were obtained from ATCC (American Type Culture Collection), DSMZ (Deutsche Sammlung von Mikroorganismen und Zellkulturen), and HSRRB (Health Science Research Resources Bank) and cultured in RPMI or Dulbecco's modified Eagle's medium plus 10% FBS (Invitrogen, Carlsbad, CA) at 37°C, 5% CO2.

`COc1cc2c(cc1OC(C)C)[C@H](c1ccc(Cl)cc1)N(c1ccc(N(C)C[C@H]3CC[C@H](N4CCNC(=O)C4)CC3)cc1)C(=O)C2` [NVP-CFC218] was tested, and the IC50 (HCC-56, TP53 MUT) was greater than 8 µM, the IC50 (HCT 116 TP53(-/-), HCT 116, TP53 WT) was 3.38 µM and the IC50 (HCT-15, HCT-15, TP53 MUT) was greater than 8 µM. The IC50 (HD-MY-Z, TP53 MUT) was greater than 8 µM, the IC50 (HEC-50B, TP53 MUT) was greater than 8 µM and the IC50 (HEC-59, TP53 MUT) was greater than 8 µM. For the same compound, the IC50 (HEC-151, TP53 MUT) was 7.91 µM, the IC50 (HEL 92.1.7, HEL 92.1.7, TP53 MUT) was greater than 8 µM and the IC50 (HEY A8, Hey-A8, TP53 WT) was 3.12 µM. The IC50 (HGC-27, HGC-27, TP53 MUT) was 7.41 µM, the IC50 (HH, TP53 MUT) was greater than 8 µM and the IC50 (HLF, TP53 MUT) was greater than 8 µM. The IC50 (HMC-1-8, TP53 MUT) was greater than 8 µM, the IC50 (HPBALL, HPB-ALL, TP53 MUT) was greater than 8 µM and the IC50 (HSC-2, read-out: NVP- CFC218 IC50 (µM), cell line HSC-2, upper_aerodigestive_tract, TP53 MUT) was greater than 8 µM. The IC50 (HSC-3, HSC-3, TP53 MUT) was greater than 8 µM, the IC50 (HSC-4, HSC-4, TP53 MUT) was greater than 8 µM and the IC50 (HT-29, HT-29, TP53 MUT) was greater than 8 µM. It also gave an IC50 (HT-144, HT-144, TP53 WT) of 3.86 µM, an IC50 (HepG2, Hep G2, TP53 WT) of 1.95 µM and an IC50 (Hs 294T, TP53 MUT) of 3.61 µM. It also gave an IC50 (Hs 683, Hs 683, TP53 MUT) greater than 8 µM, an IC50 (Hs 695T, TP53 WT) of 3.65 µM and an IC50 (Hs 729, TP53 MUT) greater than 8 µM. The IC50 (Hs746T, Hs 746T, TP53 MUT) was greater than 8 µM, the IC50 (Hs766T, Hs 766T, TP53 MUT) was greater than 8 µM and the IC50 (Hs 936.T, TP53 WT) was 6.44 µM. For the same compound, the IC50 (Hs-578T, Hs 578T, TP53 MUT) was greater than 8 µM, the IC50 (HuCCT-1, HuCCT1, TP53 MUT) was greater than 8 µM and the IC50 (HuT78, HuT 78, TP53 MUT) was greater than 8 µM. For the same compound, the IC50 (Huh-7, HuH-7, TP53 MUT) was greater than 8 µM, the IC50 (IA-LM, TP53 MUT) was greater than 8 µM and the IC50 (IGR-39, IGR-39, TP53 MUT) was greater than 8 µM. It also gave an IC50 (IGROV-1, IGROV1, TP53 MUT) greater than 8 µM, an IC50 (IM95, read-out: NVP- CFC218 IC50 (µM), cell line IM95, stomach, TP53 WT) greater than 8 µM and an IC50 (IPC-298, IPC-298, TP53 MUT) greater than 8 µM. It also gave an IC50 (IST-MES2, TP53 MUT) greater than 8 µM, an IC50 (J82, TP53 MUT) greater than 8 µM and an IC50 (JHH7, JHH-7, TP53 MUT) greater than 8 µM. For the same compound, the IC50 (JHH-4, JHH-4, TP53 MUT) was greater than 8 µM, the IC50 (JHUEM-2, TP53 WT) was 1.73 µM and the IC50 (JMSU-1, JMSU-1, TP53 MUT) was greater than 8 µM. For the same compound, the IC50 (JVM-3, JVM-3, TP53 WT) was 3.64 µM, the IC50 (K029AX, TP53 WT) was 3.61 µM and the IC50 (KARPAS-299, KARPAS-299, TP53 MUT) was greater than 8 µM. It also gave an IC50 (KATO III, TP53 MUT) greater than 8 µM, an IC50 (KCL-22, KCL-22, TP53 MUT) greater than 8 µM and an IC50 (KE-39, TP53 MUT) greater than 8 µM. For the same compound, the IC50 (KE-97, KE-97, TP53 WT) was 1.38 µM, the IC50 (KMBC-2, TP53 MUT) was 3.55 µM and the IC50 (KMM-1, KMM-1, TP53 MUT) was greater than 8 µM. The IC50 (KMRC-1, read-out: NVP- CFC218 IC50 (µM), cell line KMRC-1, kidney, TP53 WT) was greater than 8 µM, the IC50 (KMS-11, KMS-11, TP53 WT) was greater than 8 µM and the IC50 (KMS-26, KMS-26, TP53 MUT) was greater than 8 µM. It also gave an IC50 (KMS-27, read-out: NVP- CFC218 IC50 (µM), cell line KMS-27, haem._and_lymphoid_tissue, TP53 WT) greater than 8 µM, an IC50 (KMS-28BM, read-out: NVP- CFC218 IC50 (µM), cell line KMS-28BM, haem._and_lymphoid_tissue, TP53 WT) greater than 8 µM and an IC50 (KNS-42, read-out: NVP- CFC218 IC50 (µM), cell line KNS-42, central_nervous_system, TP53 MUT) greater than 8 µM. It also gave an IC50 (KNS-60, TP53 MUT) greater than 8 µM, an IC50 (KNS-62, KNS-62, TP53 MUT) greater than 8 µM and an IC50 (KO52, TP53 MUT) greater than 8 µM. The IC50 (KP4, TP53 WT) was greater than 8 µM, the IC50 (KP-2, TP53 MUT) was greater than 8 µM and the IC50 (KP-3, TP53 MUT) was greater than 8 µM. The IC50 (KP-N-SI9s, TP53 WT) was 1.2 µM, the IC50 (KS-1, TP53 WT) was 2.2 µM and the IC50 (KU812, KU812, TP53 MUT) was greater than 8 µM. For the same compound, the IC50 (KU-19-19, KU-19-19, TP53 WT) was 6.89 µM, the IC50 (KYM-1, TP53 WT) was 2.95 µM and the IC50 (KYSE-30, KYSE-30, TP53 MUT) was greater than 8 µM. It also gave an IC50 (KYSE-70, KYSE-70, TP53 MUT) greater than 8 µM, an IC50 (KYSE-140, KYSE-140, TP53 MUT) greater than 8 µM and an IC50 (KYSE-180, KYSE-180, TP53 MUT) greater than 8 µM. The IC50 (KYSE-410, read-out: NVP- CFC218 IC50 (µM), cell line KYSE-410, oesophagus, TP53 MUT) was greater than 8 µM, the IC50 (KYSE-450, read-out: NVP- CFC218 IC50 (µM), cell line KYSE-450, oesophagus, TP53 MUT) was greater than 8 µM and the IC50 (KYSE-510, read-out: NVP- CFC218 IC50 (µM), cell line KYSE-510, oesophagus, TP53 MUT) was greater than 8 µM. The IC50 (KYSE-520, read-out: NVP- CFC218 IC50 (µM), cell line KYSE-520, oesophagus, TP53 MUT) was greater than 8 µM, the IC50 (L3.3, TP53 WT) was greater than 8 µM and the IC50 (L-363, L-363, TP53 MUT) was greater than 8 µM. The IC50 (L-428, read-out: NVP- CFC218 IC50 (µM), cell line L-428, haem._and_lymphoid_tissue, TP53 MUT) was greater than 8 µM, the IC50 (LC-1/sq-SF, TP53 MUT) was greater than 8 µM and the IC50 (LCLC-103H, TP53 MUT) was greater than 8 µM. It also gave an IC50 (LK-2, TP53 MUT) greater than 8 µM, an IC50 (LN-18, LN-18, TP53 MUT) greater than 8 µM and an IC50 (LN-229, read-out: NVP- CFC218 IC50 (µM), cell line LN-229, central_nervous_system, TP53 WT) greater than 8 µM. The IC50 (LOU-NH91, LOU-NH91, TP53 MUT) was greater than 8 µM.
